The subject of this test is rats of a collagen-induced arthritis model. The test is described as follows: Both-hindlimb edema suppression in rats of a collagen-induced arthritis model. To be noted: solo administration; for Edema Index: mean ± standard error, control group 6.85 ± 0.33; for Percent edema suppression: vs control group. In kind it is in vivo, Lewis female rats (LEW/Crj). As to the method: The effect on suppressing both-hindlimb edema of 2-benzyl-5-(4-chlorophenyl)-6-[4-(methylthio)phenyl]-2H-pyridazin-3-one (synthesized through the aforementioned method) and that of tacrolimus (Prograf (injection: 5 mg), product of Fujisawa Pharmaceutical Co., Ltd.) were determined both in the cases of combined administration and solo administration through the following procedure (by use of rats of a collagen-induced arthritis model) (FDA, CBER, CDER, CDRH: Guidance for industry—Clinical development programs for drugs, devices, and biological products for the treatment of rheumatoid arthritis (RA)—. (1999)). Lewis female rats (LEW/Crj) (obtained from Charles River Laboratories Japan, Inc.) were employed as test animals.
For each 8-week-old LEW/Crj rat, the volume of a portion from the ankle to the toe tip of each hindlimb was measured by means of a plethysmometer for small animals (TK-101CMP, product of Unicom), and a total of the two volumes was employed as a volume of the hindlimbs (hereinafter referred to as both-hindlimb volume) at the start of the test (hereinafter referred to as Pre value). By use of the Pre value as an index, the rats were divided into groups which are alike from group to group, through one-parameter-based block randomization.
The collagen emulsion for sensitization employed for inducing arthritis in rats was prepared by homogenizing a 0.3% Type II collagen liquid (product of Collagen Research Center), adjuvant peptide (product of Peptide Institute, Inc.), and adjuvant incomplete Freund (product of DIFCO) by means of a Handy Micro Homogenizer (product of Microtec Nition) under cooling with ice. The thus-prepared emulsion was intracutaneously injected to 10 sites in the dorsum of each rat at 0.1 mL/site, to thereby initially sensitize the rat. Seven days after initial sensitization, the same emulsion (0.12 mL) was intracutaneously injected to the tail head of the rat for booster sensitization.
Administration of one drug or two drugs was carried out the day after initial sensitization to day 26. To the 2-benzyl-5-(4-chlorophenyl)-6-[4-(methylthio)phenyl]-2H-pyridazin-3-one solo administration group, the drug was orally administered twice; in the morning (9:00 to 11:00) and in the evening (15:30 to 17:30) at a dose of 3 mg/kg. To the tacrolimus sole administration group, the drug was orally administered once in the afternoon (11:30 to 13:30) at a dose of 0.1, 0.3, or 1 mg/kg. To the combined administration group (2-benzyl-5-(4-chlorophenyl)-6-[4-(methylthio)phenyl]-2H-pyridazin-3-one and tacrolimus), 2-benzyl-5-(4-chlorophenyl)-6-[4-(methylthio)phenyl]-2H-pyridazin-3-one was orally administered in the morning (9:00 to 11:00) and in the evening (15:30 to 17:30) at a dose of 3 mg/kg, and tacrolimus was orally administered in the afternoon (11:30 to 13:30) at a dose of 0.3 mg/kg.
14 days, 18 days, 22 days, and 26 days after initial sensitization, both-hindlimb volume was measured. Volume of both-hindlimb edema was calculated by subtracting the Pre value from the thus-measured value.
Table 1 and FIG. 1 show Edema Index of the groups of rats, the groups being the 2-benzyl-5-(4-chlorophenyl)-6-[4-(methylthio)phenyl]-2H-pyridazin-3-one solo administration group, the tacrolimus solo administration group, and the combined administration group. The Edema Index of each group is an average of the indices obtained from 6 to 12 rats ±a standard error. Percent edema suppression represents a value obtained from the relationship:
100×[(average both-hindlimb edema volume of the control group)−(average both-hindlimb edema volume of each administration group)]/(average both-hindlimb edema volume of the control group). Relative factor represents a ratio of (average both-hindlimb edema volume of each administration group)/(average both-hindlimb edema volume of the control group).

Consider `CSc1ccc(-c2nn(Cc3ccccc3)c(=O)cc2-c2ccc(Cl)cc2)cc1` [2-benzyl-5-(4-chlorophenyl)-6-[4-(methylthio)phenyl]-2H-pyridazin-3-one], for which the “Edema Index suppression effect (in words)” value (3 mg/kg) is recorded as “do not result in potent Edema Index suppression effects”. The “Edema Index” value (3 mg/kg orally twice daily, day 1 to day 26 after initial sensitization, sum of both-hindlimb edema volumes at days 14, 18, 22, 26) is reported as 5.58 ± 0.63 mL. The Relative factor (3 mg/kg orally twice daily, ratio of group average edema volume to control group) is 0.81. Under “3 mg/kg orally twice daily”, the Percent edema suppression was 19%.
For the compound `C=CC[C@@H]1/C=C(\C)C[C@H](C)C[C@H](OC)[C@H]2O[C@@](O)(C(=O)C(=O)N3CCCC[C@H]3C(=O)O[C@H](/C(C)=C/[C@@H]3CC[C@@H](O)[C@H](OC)C3)[C@H](C)[C@@H](O)CC1=O)[C@H](C)C[C@@H]2OC` [Tacrolimus, tacrolimus], the “Edema Index” value runs as follows: (0.1 mg/kg orally once daily, day 1 to day 26) 6.75 ± 0.31 mL; (0.3 mg/kg orally once daily, day 1 to day 26) 6.09 ± 0.30 mL; (1 mg/kg orally once daily, day 1 to day 26) 5.04 ± 0.20 mL. Besides, the Relative factor came out at 0.99 (0.1 mg/kg orally once daily, ratio to control group); 0.89 (0.3 mg/kg orally once daily, ratio to control group); 0.74 (1 mg/kg orally once daily, ratio to control group). Further, the Percent edema suppression by setting is: (0.1 mg/kg orally once daily) 1%; (0.3 mg/kg orally once daily) 11%; (1 mg/kg orally once daily) 26%. Where the note is “up to 1 mg/kg”, the “Edema Index suppression effect (in words)” value was “do not result in potent Edema Index suppression effects”.

The values are drawn from patent US20090131443A1, “METHOD FOR PREVENTION AND/OR TREATMENT OF RHEUMATOID ARTHRITIS” (Kowa Co., Ltd., priority 2005, published 2009).
